Laboratory results as given in US10611759B2, “Glutaminase inhibitors” (Rhizen Pharmaceuticals SA, priority 2014, dated 2020).
Where two headings read alike, the source gives them in different places.

Target: T1, Glutaminase(Brain) (Mus musculus, UniProt D3Z7P3)
T1 sequence (D3Z7P3 55-674): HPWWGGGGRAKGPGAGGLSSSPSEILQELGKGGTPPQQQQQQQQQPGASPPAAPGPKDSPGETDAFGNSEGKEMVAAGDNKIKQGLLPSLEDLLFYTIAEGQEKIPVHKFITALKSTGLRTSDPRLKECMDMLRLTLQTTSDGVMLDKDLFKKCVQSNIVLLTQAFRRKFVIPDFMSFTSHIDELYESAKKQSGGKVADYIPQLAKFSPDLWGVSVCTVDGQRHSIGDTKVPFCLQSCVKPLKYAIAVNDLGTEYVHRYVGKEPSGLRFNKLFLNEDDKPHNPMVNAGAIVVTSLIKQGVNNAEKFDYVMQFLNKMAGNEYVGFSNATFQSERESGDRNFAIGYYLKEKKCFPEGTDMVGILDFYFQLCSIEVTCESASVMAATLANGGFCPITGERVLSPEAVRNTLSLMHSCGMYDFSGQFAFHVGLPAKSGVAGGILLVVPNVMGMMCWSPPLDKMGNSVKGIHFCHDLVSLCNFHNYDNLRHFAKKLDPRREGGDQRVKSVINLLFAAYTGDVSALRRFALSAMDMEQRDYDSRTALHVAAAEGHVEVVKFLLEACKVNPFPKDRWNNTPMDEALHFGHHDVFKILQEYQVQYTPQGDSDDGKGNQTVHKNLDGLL
Assay: Glutaminase enzyme activity using glutaminase enzyme from mice brain/kidney homogenate (Nessler's reagent, ammonia)
Assay type: biochemical
Conditions: for inhibition at 0.1 µM: read-out: Glutaminase(Brain) activity % inhibition 0.1 μM; for inhibition at 1 µM: read-out: Glutaminase(Brain) activity % inhibition @1 μM
Method: Assay 3: Determination of Glutaminase Enzyme Activity Using Glutaminase Enzyme from Mice Brain/Kidney
Step 1: Preparation of Tissue Homogenates:
Male Balb/c mice were administered 0.28 M ammonium chloride in drinking water for 7 days. The animals were sacrificed and brain/kidney organs collected on dry ice. […] The tissue was homogenized and supernatants were stored at −80° C. until the enzyme assay was performed.
Aim: Compounds were assessed for their ability to inhibit the enzymatic activity of L-glutaminase present in mice brain/kidney homogenate.
Protocol: The assay was performed using a colorimetric method using Nessler's Reagent by quantifying the amount of ammonia formed as a by product during the enzymatic conversion of L-glutamine to glutamate. In the routine assay, 16 μl of tissue homogenate is added to 33 μl of Tris-Hcl phosphate buffer (pH 8) along with 1 μl of DMSO/test compound containing the desired final concentration and vortexed briefly. 50 μl of 20 mM L-glutamine Tris buffer is added to start the reaction and incubated for 15 minutes at 37° C. The ammonia formed is detected by adding 20 μl of reaction mixture to cold water in a 96 well plate followed by 20 μl of Nessler's reagent. The colour developed is measured at 450 nm. Data Analysis: Activity of the test compound is reported as % inhibition and the data is analyzed using Graphpad Prism (Graphpad software; San Diego Calif.) for IC50 determination.

SMILES | inhibition at 0.1 µM (0.1 μM, mice brain homogenate) [%] | inhibition at 1 µM (1 μM, mice brain homogenate) [%] | inhibition at 0.1 µM [%] | inhibition at 1 µM [%]
O=C(Cc1cccnc1)Nc1ccc(N2CCC(c3nnc(NC(=O)Cc4c(F)ccc(F)c4F)s3)CC2)nn1 [Example-19, 2-(Pyridin-3-yl)-N-(6-(4-(5-(2-(2,3,6-trifluorophenyl)acetamido)-1,3,4-thiadiazol-2-yl)piperidin-1-yl)pyridazin-3-yl)acetamide] | 50 to 75 | 75 to 100 | – | –
O=C(Cc1ccccn1)Nc1ccc(N2CCC(c3nnc(NC(=O)Cc4cccc(F)c4F)s3)CC2)nn1 [Example-21, 2-(2,3-Difluorophenyl)-N-(5-(1-(6-(2-(pyridin-2-yl)acetamido)pyridazin-3-yl)piperidin-4-yl)-1,3,4-thiadiazol-2-yl)acetamide] | 50 to 75 | 75 to 100 | – | –
O=C(Cc1cccc(OC(F)(F)F)c1)Nc1ccc(N2CCC(c3nnc(NC(=O)Cc4ccccn4)s3)CC2)cn1 [Example 1, 2-(Pyridin-2-yl)-N-(5-(1-(6-(2-(3-(trifluoromethoxy)phenyl)acetamido)pyridin-3-yl)piperidin-4-yl)-1,3,4-thiadiazol-2-yl)acetamide] | – | – | < 25 | 50 to 75
N#Cc1cccc(CC(=O)Nc2nnc(C3CCN(c4ccc(NC(=O)Cc5cccc(OC(F)(F)F)c5)nc4)CC3)s2)c1 [Example-5, 2-(3-Cyanophenyl)-N-(5-(1-(6-(2-(3-(trifluoromethoxy)phenyl)acetamido)pyridin-3-yl)piperidin-4-yl)-1,3,4-thiadiazol-2-yl)acetamide] | < 25 | 25 to 50 | – | –
O=C(Cc1cccc(OC(F)(F)F)c1)Nc1ccc(N2CCCC(c3nnc(NC(=O)Cc4ccccn4)s3)C2)cn1 (racemic) [Example 2, (RS)-2-(Pyridin-2-yl)-N-(5-(1-(6-(2-(3-(trifluoromethoxy)phenyl)acetamido)pyridin-3-yl)piperidin-3-yl)-1,3,4-thiadiazol-2-yl)acetamide] | < 25 | 25 to 50 | – | –
O=C(Cc1cccc(OC(F)(F)F)c1)Nc1ccc(N2CCCC(c3nnc(NC(=O)Cc4ccccn4)s3)C2)cn1 (single isomer, unassigned) [Example 2A, (R) or (S) 2-(Pyridin-2-yl)-N-(5-(1-(6-(2-(3-(trifluoromethoxy)phenyl)acetamido)pyridin-3-yl)piperidin-3-yl)-1,3,4-thiadiazol-2-yl)acetamide] | < 25 | < 25 | – | –
O=C(Cc1cccc(OC(F)(F)F)c1)Nc1ccc(N2CCCC(c3nnc(NC(=O)Cc4cccnc4)s3)C2)cn1 (single isomer, unassigned) [Example 3B, (S) or (R) 2-(Pyridin-3-yl)-N-(5-(1-(6-(2-(3-(trifluoromethoxy)phenyl)acetamido)pyridine-3-yl)piperidin-3-yl)-1,3,4-thiadiazol-2-yl)acetamide] | < 25 | < 25 | – | –
O=C(Cc1ccccn1)Nc1ccc(N2CCC(c3nnc(NC(=O)Cc4ccc(F)c(F)c4)s3)CC2)nn1 [Example-22, 2-(3,4-Difluorophenyl)-N-(5-(1-(6-(2-(pyridin-2-yl)acetamido)pyridazin-3-yl)piperidin-4-yl)-1,3,4-thiadiazol-2-yl)acetamide] | 50 to 75 | 75 to 100 | – | –
O=C(Cc1ccccn1)Nc1ccc(N2CCC(c3nnc(NC(=O)Cc4cccc(OC(F)(F)F)c4)s3)CC2)cn1 [Example-6, 2-(Pyridin-2-yl)-N-(5-(4-(5-(2-(3-(trifluoromethoxy)phenyl)acetamido)-1,3,4-thiadiazol-2-yl)piperidin-1-yl)pyridin-2-yl)acetamide] | < 25 | < 25 | – | –

Results, then the molecule that gave them:

inhibition at 0.1 µM (0.1 μM, mice brain homogenate) [%] | inhibition at 1 µM (1 μM, mice brain homogenate) [%] | inhibition at 0.1 µM [%] | inhibition at 1 µM [%] | SMILES
50 to 75 | 75 to 100 | – | – | COc1ccccc1CC(=O)Nc1nnc(C2CCN(c3ccc(NC(=O)Cc4ccccn4)nn3)CC2)s1 [Example-26, 2-(2-Methoxyphenyl)-N-(5-(1-(6-(2-(pyridin-2-yl)acetamido)pyridazin-3-yl)piperidin-4-yl)-1,3,4-thiadiazol-2-yl)acetamide]
50 to 75 | 75 to 100 | – | – | O=C(Cc1ccccn1)Nc1ccc(N2CCC(c3nnc(NC(=O)Cc4ccc(F)cc4)s3)CC2)nn1 [Example-25, 2-(4-Fluorophenyl)-N-(5-(1-(6-(2-(pyridin-2-yl)acetamido)pyridazin-3-yl)piperidin-4-yl)-1,3,4-thiadiazol-2-yl)acetamide]
25 to 50 | 50 to 75 | – | – | O=C(Cc1cccc(OC(F)(F)F)c1)Nc1ccc(N2CCC(c3nnc(NC(=O)C(CO)c4ccccc4)s3)CC2)nn1 (stereo not drawn) [Example-36, 3-Hydroxy-2-phenyl-N-(5-(1-(6-(2-(3-(trifluoromethoxy)phenyl)acetamido)pyridazin-3-yl)piperidin-4-yl)-1,3,4-thiadiazol-2-yl)propanamide]
50 to 75 | 75 to 100 | – | – | O=C(Cc1ccccn1)Nc1ccc(N2CCC(c3nnc(NC(=O)Cc4ccc(Cl)cc4)s3)CC2)nn1 [Example-29, 2-(4-Chlorophenyl)-N-(5-(1-(6-(2-(pyridin-2-yl)acetamido)pyridazin-3-yl)piperidin-4-yl)-1,3,4-thiadiazol-2-yl)acetamide]
25 to 50 | 50 to 75 | – | – | O=C(Cc1ccccc1F)Nc1ccc(N2CCC(c3nnc(NC(=O)Cc4cnccn4)s3)CC2)nn1 [Example-33, 2-(2-Fluorophenyl)-N-(6-(4-(5-(2-(pyrazin-2-yl)acetamido)-1,3,4-thiadiazol-2-yl)piperidin-1-yl)pyridazin-3-yl)acetamide]
25 to 50 | 50 to 75 | – | – | Cc1ccccc1CC(=O)Nc1nnc(C2CCN(c3ccc(NC(=O)Cc4cccc(OC(F)(F)F)c4)nn3)CC2)s1 [Example-31, 2-o-Tolyl-N-(5-(1-(6-(2-(3-(trifluoromethoxy)phenyl)acetamido)pyridazin-3-yl)piperidin-4-yl)-1,3,4-thiadiazol-2-yl)acetamide]
50 to 75 | 75 to 100 | – | – | O=C(Cc1ccccn1)Nc1ccc(N2CCC(c3nnc(NC(=O)Cc4cccc(Cl)c4)s3)CC2)nn1 [Example-35, 2-(3-Chlorophenyl)-N-(5-(1-(6-(2-(pyridin-2-yl)acetamido)pyridazin-3-yl)piperidin-4-yl)-1,3,4-thiadiazol-2-yl)acetamide]
50 to 75 | 75 to 100 | – | – | O=C(Cc1ccccn1)Nc1ccc(N2CCC(c3nnc(NC(=O)Cc4cccc(F)c4)s3)CC2)nn1 [Example-24, 2-(3-Fluorophenyl)-N-(5-(1-(6-(2-(pyridin-2-yl)acetamido)pyridazin-3-yl)piperidin-4-yl)-1,3,4-thiadiazol-2-yl)acetamide]
50 to 75 | 50 to 75 | – | – | O=C(Cc1ccccn1)Nc1ccc(N2CCC(c3nnc(NC(=O)Cc4cc(Cl)ccc4C(F)(F)F)s3)CC2)nn1 [Example-28, 2-(5-Chloro-2-(trifluoromethyl)phenyl)-N-(5-(1-(6-(2-(pyridin-2-yl)acetamido)pyridazin-3-yl)piperidin-4-yl)-1,3,4-thiadiazol-2-yl)acetamide]
50 to 75 | 75 to 100 | – | – | O=C(Cc1ccccn1)Nc1ccc(N2CCC(c3nnc(NC(=O)Cc4ccccc4Cl)s3)CC2)nn1 [Example-27, 2-(2-Chlorophenyl)-N-(5-(1-(6-(2-(pyridin-2-yl)acetamido)pyridazin-3-yl)piperidin-4-yl)-1,3,4-thiadiazol-2-yl)acetamide]
25 to 50 | 50 to 75 | – | – | O=C(Cc1cccc(OC(F)(F)F)c1)Nc1ccc(N2CCC(c3nnc(NC(=O)Cc4c[nH]c5ccccc45)s3)CC2)nn1 [Example-32, N-(6-(4-(5-(2-(1H-indol-3-yl)acetamido)-1,3,4-thiadiazol-2-yl)piperidin-1-yl)pyridazin-3-yl)-2-(3-(trifluoromethoxy)phenyl)acetamide]
50 to 75 | 75 to 100 | – | – | O=C(Cc1ccccn1)Nc1ccc(N2CCC(c3nnc(NC(=O)Cc4ccccc4F)s3)CC2)nn1 [Example-23, 2-(2-Fluorophenyl)-N-(5-(1-(6-(2-(pyridin-2-yl)acetamido)pyridazin-3-yl)piperidin-4-yl)-1,3,4-thiadiazol-2-yl)acetamide]
